Assay results taken from patent publication US7511041B2, “Fused azole-pyrimidine derivatives” (Bayer Pharmaceuticals Corporation, priority 2002, dated 2009).
Read-outs that look alike come from different tables or passages of the source. Blank lines part the entries; values can stand above or below the compound they belong to.

Key:
[1] = biological target: T1, Recombinant human PI3Kγ (full length human PI3K p110γ) (Homo sapiens, UniProt P48736); experiment: Kinase assay of PI3Kγ (solid-phase lipid kinase assay); assay type: biochemical
T1 construct: full length human PI3K p110γ fused with a His6-tag at the C-terminus; His6 (C); purchased ALEXIS BIOCHEMICALS #201-055-C010; host or cells: S. frugiperda 9 insect cells
T1 sequence (P48736 whole entry, the tested form may be a part): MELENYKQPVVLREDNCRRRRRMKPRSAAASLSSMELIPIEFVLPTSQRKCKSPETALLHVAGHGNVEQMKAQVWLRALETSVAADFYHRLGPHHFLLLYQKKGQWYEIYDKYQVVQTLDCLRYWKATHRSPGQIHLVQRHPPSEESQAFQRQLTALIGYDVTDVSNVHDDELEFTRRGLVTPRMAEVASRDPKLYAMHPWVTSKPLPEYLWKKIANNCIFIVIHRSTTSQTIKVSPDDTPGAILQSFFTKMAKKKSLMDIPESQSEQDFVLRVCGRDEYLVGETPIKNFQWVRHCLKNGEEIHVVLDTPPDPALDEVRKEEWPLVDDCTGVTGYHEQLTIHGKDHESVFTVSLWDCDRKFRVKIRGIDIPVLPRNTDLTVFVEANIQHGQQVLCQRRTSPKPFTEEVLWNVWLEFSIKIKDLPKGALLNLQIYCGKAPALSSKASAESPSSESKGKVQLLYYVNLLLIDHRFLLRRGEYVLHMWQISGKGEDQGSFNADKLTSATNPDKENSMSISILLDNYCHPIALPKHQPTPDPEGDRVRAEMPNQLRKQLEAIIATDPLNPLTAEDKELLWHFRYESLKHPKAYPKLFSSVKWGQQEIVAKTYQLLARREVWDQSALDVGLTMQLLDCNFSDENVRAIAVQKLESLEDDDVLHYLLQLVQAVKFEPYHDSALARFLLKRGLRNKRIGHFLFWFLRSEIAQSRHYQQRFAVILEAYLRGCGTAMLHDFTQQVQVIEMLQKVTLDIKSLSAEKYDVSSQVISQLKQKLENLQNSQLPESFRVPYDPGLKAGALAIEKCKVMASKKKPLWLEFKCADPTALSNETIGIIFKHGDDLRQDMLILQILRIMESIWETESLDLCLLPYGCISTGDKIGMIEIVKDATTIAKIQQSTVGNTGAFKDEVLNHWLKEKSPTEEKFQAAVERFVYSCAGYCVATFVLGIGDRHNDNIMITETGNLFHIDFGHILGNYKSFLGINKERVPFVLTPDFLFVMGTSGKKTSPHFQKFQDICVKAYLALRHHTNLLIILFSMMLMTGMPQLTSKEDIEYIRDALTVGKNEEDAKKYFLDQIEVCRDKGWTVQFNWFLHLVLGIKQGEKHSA

[2] = Table 1, isozyme not given, read-out: in vitro
[3] = in vitro PI3K-γ inhibitory activity, class symbols, read-out: in vitro PI3K-gamma
[4] = in vitro PI3K-γ inhibitory activity, class symbols A-D, read-out: in vitro PI3K-gamma

Compound: O/C(=C\C1=Nc2cc(C(F)(F)F)ccc2C2=NCCN12)c1cccnc1 [Example 1-121]
IC50 [1, 2]: 0.5 to 2 µM
melting point: 264 °C

Compound: O/C(=C\C1=Nc2ccccc2C2=NCCN12)c1csc2ccccc12 [Example 1-180]
IC50 [1, 2]: > 2 µM
melting point: 220 to 225 °C

Compound: COc1cc2c(cc1OC)C1=NCCN1C(/C=C(\O)c1sc(C)nc1C)=N2 [Example 1-60]
IC50 [1, 2]: < 0.1 µM
melting point: 292 °C

Compound: O=C(NC1=Nc2ccccc2C2=NCCN12)c1cccc(Cl)c1.O=C(O)C(F)(F)F [Example 2-228]
IC50 [1, 4]: 0.5 to 2 µM
melting point: 233 to 235 °C

Compound: CNc1ccc(/C(O)=C/C2=Nc3ccccc3C3=NCCN23)cn1 [Example 1-139]
IC50 [1, 2]: < 0.1 µM
melting point: 232 to 237 °C

Compound: COc1c(OCC2CC2)ccc2c1N=C(/C=C(\O)c1cccnc1)N1CCN=C21 [Example 1-15]
IC50 [1, 2]: 0.1 to 0.5 µM
melting point: 254 °C (dec.)

Compound: CN(C)c1ccc(C(=O)NC2=Nc3ccccc3C3=NCCN23)cn1 [Example 2-282]
IC50 [1, 4]: > 2 µM
melting point: 249 °C (dec.)

Compound: O=C(NC1=Nc2ccc([N+](=O)[O-])cc2C2=NCCN12)c1cccnc1.O=C(O)C(F)(F)F [Example 2-362]
IC50 [1, 4]: 0.5 to 2 µM
melting point: 224 °C

Compound: O=C(NC1=Nc2c(F)cccc2C2=NCCN12)c1ccc2[nH]cnc2c1 [Example 2-101]
IC50 [1, 3]: < 0.1 µM
melting point: > 300 °C

Compound: Nc1ncccc1C(=O)NC1=Nc2ccccc2C2=NCCN12 [Example 2-133]
IC50 [1, 3]: 0.1 to 0.5 µM
melting point: 215 °C (dec.)

Compound: Cl.NC(=O)C1CN2C(NC(=O)c3cccnc3)=Nc3ccccc3C2=N1 (stereo not drawn) [Example 2-365]
IC50 [1, 4]: > 2 µM
melting point: 274 °C (dec.)

Compound: COc1cccc2c1N=C(NC(=O)c1cc3cccnc3nc1C(F)(F)F)N1CCN=C21 [Example 2-128]
IC50 [1, 3]: < 0.1 µM
melting point: 214 °C (dec.)

Compound: COc1cccc2c1N=C(NC(=O)c1cccnc1)N1CCN=C21 [Example 2-114]
IC50 [1, 3]: < 0.1 µM
melting point: 110 °C

Compound: COc1ccc(C(=O)NC2=Nc3ccccc3C3=NCCN23)c(OC)n1 [Example 2-286]
IC50 [1, 4]: > 2 µM
melting point: 244 to 245 °C

Compound: COc1cccc2c1N=C(NC(=O)c1cnccc1C(F)(F)F)N1CCN=C21 [Example 2-121]
IC50 [1, 3]: 0.1 to 0.5 µM
melting point: 144 to 145 °C

Compound: Cc1ccc(C(=O)NC2=Nc3ccccc3C3=NCCN23)s1 [Example 2-302]
IC50 [1, 4]: 0.5 to 2 µM
melting point: 192 to 193 °C

Compound: O=C(NC1=Nc2ccccc2C2=NCCN12)c1ccc(Cl)nc1 [Example 2-291]
IC50 [1, 4]: 0.1 to 0.5 µM
melting point: 246 to 247 °C

Compound: O=C(NC1=Nc2cc(C(F)(F)F)ccc2C2=NCCN12)c1cccnc1 [Example 2-33]
IC50 [1, 3]: 0.1 to 0.5 µM
melting point: 229 °C

Compound: O=C(NC1=Nc2ccccc2C2=NCCN12)c1ccc(-n2cccc2)cc1 [Example 2-266]
IC50 [1, 4]: > 2 µM
melting point: 218 to 220 °C

Compound: CN(C)C(=O)NCCc1ccc2c(n1)N=C(/C=C(\O)c1cccnc1)N1CCN=C21 [Example 1-203]
IC50 [1, 2]: 0.1 to 0.5 µM
melting point: 228 °C

Compound: Cl.O/C(=C\C1=Nc2ccccc2C2=NCCN12)c1ccsc1 [Example 1-149]
IC50 [1, 2]: < 0.1 µM
melting point: > 300 °C

Compound: O=C(NC1=Nc2cc(OCCO)ccc2C2=NCCN12)c1cccnc1 [Example 2-197]
IC50 [1, 3]: 0.1 to 0.5 µM
melting point: 210 to 215 °C (dec.)

Compound: COc1ccc2c(c1OC)N=C(/C=C(\O)c1ccc(NC(C)=O)nc1)N1CCN=C21 [Example 1-12]
IC50 [1, 2]: < 0.1 µM
melting point: 270 °C (dec.)

Compound: O=C(NC1=Nc2ccccc2C2=NCCN12)c1cccs1 [Example 2-178]
IC50 [1, 3]: 0.1 to 0.5 µM
melting point: 187 to 188 °C

Compound: COc1cc2c(cc1OC)C1=NCCN1C(/C=C(\O)c1ccc(NCCO)nc1)=N2 [Example 1-54]
IC50 [1, 2]: 0.1 to 0.5 µM
melting point: 207 °C

Second part, the compound after the results:

IC50 [1, 3]: < 0.1 µM
melting point: 243 °C
Compound: Cl.O=C(NC1=Nc2cc(Br)ccc2C2=NCCN12)c1cccnc1 [Example 2-42]

IC50 [1, 4]: > 2 µM
melting point: > 410 °C
Compound: CC(C)(C)Oc1ccc(C(=O)NC2=Nc3ccccc3C3=NCCN23)cc1 [Example 2-236]

IC50 [1, 4]: > 2 µM
melting point: 121 to 122 °C
Compound: CCCC(=O)NC1=Nc2ccccc2C2=NCCN12 [Example 2-328]

IC50 [1, 4]: 0.5 to 2 µM
melting point: 194 °C (dec.)
Compound: O=C(NC1=Nc2ccccc2C2=NCCN12)C(Cl)(Cl)Cl [Example 2-332]

IC50 [1, 4]: 0.5 to 2 µM
melting point: 198 to 199 °C
Compound: COc1ncccc1C(=O)NC1=Nc2ccccc2C2=NCCN12 [Example 2-285]

IC50 [1, 4]: > 2 µM
melting point: 218 to 222 °C
Compound: CN1CCN(c2ccc(C(=O)NC3=Nc4ccccc4C4=NCCN34)cc2)CC1 [Example 2-261]

IC50 [1, 4]: > 2 µM
melting point: 330 °C (dec.)
Compound: COc1cc(OC)cc(C(=O)NC2=Nc3ccccc3C3=NCCN23)c1 [Example 2-239]

IC50 [1, 2]: > 2 µM
melting point: 212 to 214 °C
Compound: COc1ccc(/C(O)=C/C2=Nc3ccccc3C3=NCCN23)cc1 [Example 1-169]

IC50 [1, 4]: 0.5 to 2 µM
melting point: 350 °C (dec.)
Compound: O=C(NC1=Nc2ccccc2C2=NCCN12)c1ccco1 [Example 2-298]

IC50 [1, 3]: 0.1 to 0.5 µM
melting point: 324 °C (dec.)
Compound: Cl.O=C(NC1=Nc2ccccc2C2=NCCN12)c1ccc(Cl)nc1 [Example 2-155]

IC50 [1, 3]: 0.1 to 0.5 µM
melting point: 202 °C
Compound: COc1cc2c(c(OC)c1C)N=C(NC(=O)c1ccc3[nH]cnc3c1)N1CCN=C21 [Example 2-81]

IC50 [1, 2]: < 0.1 µM
melting point: 240 °C (dec.)
Compound: COc1c(OCC(=O)O)ccc2c1N=C(/C=C(\O)c1cccnc1)N1CCN=C21.Cl [Example 1-22]

IC50 [1, 3]: < 0.1 µM
melting point: 209 °C
Compound: Cc1ccc(C(=O)NC2=Nc3cc(N4CCOCC4)ccc3C3=NCCN23)cn1 [Example 2-13]

IC50 [1, 4]: 0.1 to 0.5 µM
melting point: 209 °C
Compound: N#CCOc1ccc2c(c1)C1=NCCN1C(NC(=O)c1cccnc1)=N2 [Example 2-213]

IC50 [1, 3]: 0.1 to 0.5 µM
melting point: 243 °C
Compound: O=C(NC1=Nc2cc(N3CCOCC3)ccc2C2=NCCN12)c1cccnc1 [Example 2-7]

IC50 [1, 3]: < 0.1 µM
melting point: 296 °C
Compound: COc1cccc2c1N=C(NC(=O)c1ccc(N)nc1)N1CCN=C21.Cl [Example 2-123]

IC50 [1, 2]: 0.1 to 0.5 µM
melting point: 260 °C (dec.)
Compound: COc1cc2c(cc1OC)C1=NCCN1C(/C=C(\O)c1ccc(C)nc1)=N2.Cl [Example 1-50]

IC50 [1, 4]: > 2 µM
melting point: 179 to 180 °C
Compound: O=C(NC1=Nc2ccccc2C2=NCCN12)C1CCNCC1 [Example 2-339]

IC50 [1, 3]: 0.1 to 0.5 µM
melting point: 243 °C (dec.)
Compound: Cl.O=C(NC1=Nc2cc(OCCCO)ccc2C2=NCCN12)c1cccnc1 [Example 2-200]

IC50 [1, 2]: 0.1 to 0.5 µM
melting point: 224 °C
Compound: Cc1ccc2c(c1)N=C(/C=C(\O)c1cccnc1)N1CCN=C21 [Example 1-119]

IC50 [1, 4]: > 2 µM
melting point: 224 to 226 °C
Compound: COC(=O)c1cccc(C(=O)NC2=Nc3ccccc3C3=NCCN23)c1 [Example 2-272]

IC50 [1, 4]: > 2 µM
melting point: 149 to 150 °C
Compound: O=C(COc1ccccc1)NC1=Nc2ccccc2C2=NCCN12 [Example 2-325]

IC50 [1, 4]: > 2 µM
melting point: 269 to 270 °C
Compound: O=C(NC1=Nc2ccccc2C2=NCCN12)c1csc([N+](=O)[O-])c1 [Example 2-305]
